Here are results for 26 compounds from patent publication US7196110B2, “N-substituted tricyclic 3-aminopyrazoles as inhibitors for the treatment of cell proliferative disorders” (Janssen Phamaceutica N.V., priority 2002, dated 2007).

Structures are written as SMILES.

The target of assay [1] is c-Abl kinase (Abelson murine leukemia virus, UniProt P00521). Description: Inhibition of c-Abl kinase activity (cell-free, Abl peptide substrate, 33P Flashplate). Type of assay: biochemical. Particulars: IC50 for the c-Abl kinase activity.
The target of assay [2] is T1, PDGF-receptor beta enzyme comprising the tyrosine kinase domain (Homo sapiens, UniProt P09619).
T1 construct: from amino acid 545 to 1106 of GenBank Access NO: AAA36427
Description: Inhibition of PDGF-receptor kinase activity (cell-free, PLC1 peptide, 33P Flashplate). The assay is classed as biochemical. Particulars: PDGF-R kinase activity; for inhibition at 10 µM: compound at 10 uM, read-out: Percent Inhibition @ 10 uM; for IC50: read-out: IC50. In short, it runs like this:
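Recombinant kinase domain (aa 545–1106) phosphorylated a biotinylated PLC1 peptide with 5 μM ATP plus 33P-γ-ATP, in Tris pH 8, MgCl2, Na3VO4 and 1 mM DTT, for 60 min at 30 °C. Retained 33P was counted after washing. IC50 is the concentration halving activity versus no-inhibitor reactions.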

c-Abl kinase, sequence (P00521 115-385): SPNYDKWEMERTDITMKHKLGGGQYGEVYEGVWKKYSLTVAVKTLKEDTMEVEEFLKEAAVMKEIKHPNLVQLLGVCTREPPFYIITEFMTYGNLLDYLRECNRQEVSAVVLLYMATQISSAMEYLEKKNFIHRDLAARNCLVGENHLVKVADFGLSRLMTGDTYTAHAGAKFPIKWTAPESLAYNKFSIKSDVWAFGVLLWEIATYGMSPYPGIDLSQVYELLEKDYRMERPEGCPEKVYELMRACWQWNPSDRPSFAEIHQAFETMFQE
T1 sequence (P09619 545-1106): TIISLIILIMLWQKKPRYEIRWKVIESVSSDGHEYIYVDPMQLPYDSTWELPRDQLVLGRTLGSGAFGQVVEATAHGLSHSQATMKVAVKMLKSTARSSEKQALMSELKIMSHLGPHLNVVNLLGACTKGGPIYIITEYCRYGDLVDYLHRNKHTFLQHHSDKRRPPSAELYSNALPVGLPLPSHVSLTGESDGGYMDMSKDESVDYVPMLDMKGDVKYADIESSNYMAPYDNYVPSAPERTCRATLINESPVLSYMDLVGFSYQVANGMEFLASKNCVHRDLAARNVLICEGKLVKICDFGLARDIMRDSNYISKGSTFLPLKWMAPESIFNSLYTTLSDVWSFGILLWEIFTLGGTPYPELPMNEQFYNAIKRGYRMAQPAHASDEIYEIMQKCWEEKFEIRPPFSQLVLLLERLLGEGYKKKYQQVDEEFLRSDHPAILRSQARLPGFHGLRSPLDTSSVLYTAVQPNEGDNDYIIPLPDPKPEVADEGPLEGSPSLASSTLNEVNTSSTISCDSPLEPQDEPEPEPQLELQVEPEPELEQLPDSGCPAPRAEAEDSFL

As for `CCOc1cc2c(cc1OCCCO)Cc1c-2n[nH]c1Nc1cccc(OC)c1` [Compound 384, 3-[7-Ethoxy-3-(3-methoxy-phenylamino)-2,4-dihydro-indeno[1,2-c]pyrazol-6-yloxy]-propan-1-ol], the IC50 in assay [1] was determined as 4 nM; in assay [2], 5.61 nM. Moreover, in assay [2], the inhibition at 10 µM came out at 100%.

For the compound `CCOc1cc2c(cc1OCC(O)CN1CCCC1)-c1n[nH]c(Nc3cccc(F)c3)c1C2` (stereo not drawn) [Compound 460, 1-[6-Ethoxy-3-(3-fluoro-phenylamino)-2,4-dihydro-indeno[1,2-c]pyrazol-7-yloxy]-3-pyrrolidin-1-yl-propan-2-ol], the IC50 in assay [1] amounted to 4 nM. In assay [2], the inhibition at 10 µM was 97.5% and the IC50 is 4.27 nM.

In the case of `COc1cccc(Nc2[nH]nc3c2Cc2cc(OCCCO)c(OCCCO)cc2-3)c1` [Compound 400, 3-[7-(3-Hydroxy-propoxy)-3-(3-methoxy-phenylamino)-2,4-dihydro-indeno[1,2-c]pyrazol-6-yloxy]-propan-1-ol], the IC50 amounted to 5 nM in assay [1] and 2.92 nM in assay [2]. In addition, in assay [2], the inhibition at 10 µM stood at 98.5%.

As for `Cc1ccc2c(c1)-c1n[nH]c(Nc3cccc(F)c3)c1C2` [Compound 182, (3-Fluoro-phenyl)-(7-methyl-2,4-dihydro-indeno[1,2-c]pyrazol-3-yl)-amine], the IC50 in assay [1] was determined as 93 nM. In addition, in assay [2], the inhibition at 10 µM came out at 107% and the IC50 amounted to 5 nM.

As to `COCCCOc1ccc2c(c1)Cc1c-2n[nH]c1Nc1ccccc1` [Compound 140, [6-(3-Methoxy-propoxy)-2,4-dihydro-indeno[1,2-c]pyrazol-3-yl]-phenyl-amine], the IC50 in assay [1] came to 1410 nM. Moreover, in assay [2], the inhibition at 10 µM was 56.5% and the IC50 worked out at 13.7 nM.

On to `Clc1cccc(Cl)c1CNc1[nH]nc2c1Cc1c(OCCCN3CCOCC3)cccc1-2` [Compound 415, (2,6-Dichloro-benzyl)-[5-(3-morpholin-4-yl-propoxy)-2,4-dihydro-indeno[1,2-c]pyrazol-3-yl]-amine], for which, in assay [1], the half-inhibitory concentration (IC50) was found to be 219 nM. Also, in assay [2], the inhibition at 10 µM worked out at 98% and the IC50 turned out to be 25.8 nM.

Consider `COc1cc2c(cc1OCCCN1CCOCC1)Cc1c-2n[nH]c1Nc1ccc(F)c(Cl)c1` [Compound 179, (3-Chloro-4-fluoro-phenyl)-[7-methoxy-6-(3-morpholin-4-yl-propoxy)-2,4-dihydro-indeno[1,2-c]pyrazol-3-yl]-amine], for which the IC50 in assay [1] was 870 nM. Also, in assay [2], the inhibition at 10 µM stood at 92% and the IC50 was found to be 71.2 nM.

As to `COc1cccc(Nc2[nH]nc3c2Cc2cc(OCCCN4CCCC4)c(OC)cc2-3)c1` [Compound 156, (3-Methoxy-phenyl)-[7-methoxy-6-(3-pyrrolidin-1-yl-propoxy)-2,4-dihydro-indeno[1,2-c]pyrazol-3-yl]-amine], the IC50 in assay [1] amounted to 89 nM. Besides, in assay [2], the inhibition at 10 µM is 87.5% and the IC50 was 1 nM.

As for `COc1ccc(OC)c(Nc2[nH]nc3c2Cc2ccccc2-3)c1` [Compound 341, (2,4-Dihydro-indeno[1,2-c]pyrazol-3-yl)-(2,5-dimethoxy-phenyl)-amine], the values for the 50% inhibitory concentration (IC50) in assay [1] and in assay [2] were 350 nM and 41.2 nM, respectively. Besides, the inhibition at 10 µM in assay [2] was determined as 92.5%.

Consider `COc1cc2c(cc1OC)-c1n[nH]c(Nc3cccc(SC)c3)c1C2` [Compound 208, (6,7-Dimethoxy-2,4-dihydro-indeno[1,2-c]pyrazol-3-yl)-(3-methylsulfanyl-phenyl)-amine], for which, in assay [1], the IC50 turned out to be 9 nM. In assay [2], the inhibition at 10 µM came to 82% and the 50% inhibitory concentration (IC50) is 3 nM.

Turning to `COc1cc2c(cc1OCC(O)CO)Cc1c-2n[nH]c1NCc1c(F)cccc1F` (stereo not drawn) [Compound 457, 3-[3-(2,6-Difluoro-benzylamino)-7-methoxy-2,4-dihydro-indeno[1,2-c]pyrazol-6-yloxy]-propane-1,2-diol], the IC50 in assay [1] was 4 nM. In addition, in assay [2], the inhibition at 10 µM was found to be 100% and the IC50 amounted to 3.41 nM.

On to `Fc1ccc(F)c(Nc2[nH]nc3c2Cc2ccccc2-3)c1` [Compound 339, (2,5-Difluoro-phenyl)-(2,4-dihydro-indeno[1,2-c]pyrazol-3-yl)-amine], for which the 50% inhibitory concentration (IC50) in assay [1] came out at 2180 nM. For the same compound, in assay [2], the inhibition at 10 µM was 100% and the IC50 stood at 117 nM.

As for `COc1cc2c(cc1OCC(O)CO)Cc1c-2n[nH]c1Nc1cccc(F)c1` (stereo not drawn) [Compound 262, 3-[3-(3-Fluoro-phenylamino)-7-methoxy-2,4-dihydro-indeno[1,2-c]pyrazol-6-yloxy]-propane-1,2-diol], the IC50 in assay [1] worked out at 27 nM. In addition, in assay [2], the inhibition at 10 µM turned out to be 90% and the 50% inhibitory concentration (IC50) was 1 nM.

With `COc1cccc2c1Cc1c-2n[nH]c1Nc1ccccc1` [Compound 8], the IC50 in assay [1] came to 694 nM. In assay [2], the inhibition at 10 µM stood at 98% and the half-inhibitory concentration (IC50) stood at 54 nM.

Take `COc1cc2c(cc1OC)-c1n[nH]c(Nc3ccc(F)cc3)c1C2` [Compound 13, (6,7-Dimethoxy-2,4-dihydro-indeno[1,2-c]pyrazol-3-yl)-(4-fluoro-phenyl)-amine]: in assay [1], the IC50 is 173 nM. For the same compound, in assay [2], the inhibition at 10 µM is 91% and the IC50 came out at 6.5 nM.

For the compound `COc1ccc(Nc2[nH]nc3c2Cc2ccc(C)cc2-3)cc1Cl` [Compound 309, (3-Chloro-4-methoxy-phenyl)-(7-methyl-2,4-dihydro-indeno[1,2-c]pyrazol-3-yl)-amine], the concentration for half-maximal inhibition (IC50) in assay [1] came out at 822 nM; in assay [2], 30.2 nM. In addition, in assay [2], the inhibition at 10 µM was 92.5%.

Consider `Clc1ccc2c(c1)Cc1c-2n[nH]c1Nc1cccnc1` [Compound 188, (6-Chloro-2,4-dihydro-indeno[1,2-c]pyrazol-3-yl)-pyridin-3-yl-amine], for which, in assay [1], the IC50 came out at 1400 nM. Besides, in assay [2], the inhibition at 10 µM was 74% and the half-inhibitory concentration (IC50) amounted to 43.7 nM.

As to `COc1cc(Nc2[nH]nc3c2Cc2cc(OC)c(OC)cc2-3)cc(OC)c1` [Compound 41, (6,7-Dimethoxy-2,4-dihydro-indeno[1,2-c]pyrazol-3-yl)-(3,5-dimethoxy-phenyl)-amine], the half-inhibitory concentration (IC50) was 78 nM in assay [1] and 33.6 nM in assay [2]. For the same compound, the inhibition at 10 µM in assay [2] stood at 83%.

Regarding `COc1cc2c(cc1OC)-c1n[nH]c(Nc3cccc(O)c3)c1C2` [Compound 38, 3-(6,7-Dimethoxy-2,4-dihydro-indeno[1,2-c]pyrazol-3-ylamino)-phenol], the IC50 in assay [1] worked out at 2 nM. Besides, in assay [2], the inhibition at 10 µM came to 74% and the IC50 came to 31 nM.

Take `COc1cc2c(cc1OCC(O)CN1CCCC1)Cc1c-2n[nH]c1Nc1cccc(Cl)c1` (stereo not drawn) [Compound 282, 1-[3-(3-Chloro-phenylamino)-7-methoxy-2,4-dihydro-indeno[1,2-c]pyrazol-6-yloxy]-3-pyrrolidin-1-yl-propan-2-ol]: the IC50 in assay [1] was 43 nM. In assay [2], the inhibition at 10 µM turned out to be 99% and the IC50 was 0.089 nM.

As to `COc1cc2c(cc1OCC(O)CN1CCCC1)Cc1c-2n[nH]c1NCc1c(F)cccc1F` (stereo not drawn) [Compound 391, 1-[3-(2,6-Difluoro-benzylamino)-7-methoxy-2,4-dihydro-indeno[1,2-c]pyrazol-6-yloxy]-3-pyrrolidin-1-yl-propan-2-ol], the IC50 worked out at 14 nM in assay [1] and 6.8 nM in assay [2]. Besides, in assay [2], the inhibition at 10 µM is 99%.

As for `Cc1ccc2c(c1)-c1n[nH]c(Nc3cc(F)ccc3F)c1C2` [Compound 185, (2,5-Difluoro-phenyl)-(7-methyl-2,4-dihydro-indeno[1,2-c]pyrazol-3-yl)-amine], the results for the IC50 in assay [1] and in assay [2] were 666 nM and 50 nM, respectively. Also, the inhibition at 10 µM in assay [2] was found to be 84%.

As for `Fc1cccc(Nc2[nH]nc3c2Cc2ccccc2-3)c1` [Compound 337, (2,4-Dihydro-indeno[1,2-c]pyrazol-3-yl)-(3-fluoro-phenyl)-amine], the concentration for half-maximal inhibition (IC50) in assay [1] was determined as 2740 nM. In assay [2], the inhibition at 10 µM stood at 100% and the IC50 amounted to 8.8 nM.

Turning to `CCC1c2cc(OC)c(OC)cc2-c2n[nH]c(Nc3cccc(Cl)c3)c21` (stereo not drawn) [Compound 419, (3-Chloro-phenyl)-(4-ethyl-6,7-dimethoxy-2,4-dihydro-indeno[1,2-c]pyrazol-3-yl)-amine], the IC50 in assay [1] came to 292 nM. For the same compound, in assay [2], the inhibition at 10 µM is 100% and the IC50 is 62.1 nM.

Consider `Fc1cccc(Nc2[nH]nc3c2Cc2ccc(F)cc2-3)c1` [Compound 334, (7-Fluoro-2,4-dihydro-indeno[1,2-c]pyrazol-3-yl)-(3-fluoro-phenyl)-amine], for which the 50% inhibitory concentration (IC50) in assay [1] is 3300 nM; in assay [2] it was 8.69 nM. In addition, in assay [2], the inhibition at 10 µM was 99.5%.

In the case of `Cc1ccc2c(c1)-c1n[nH]c(Nc3cccc(C(C)O)c3)c1C2` (stereo not drawn) [Compound 310, 1-[3-(7-Methyl-2,4-dihydro-indeno[1,2-c]pyrazol-3-ylamino)-phenyl]-ethanol], the results for the IC50 in assay [1] and in assay [2] were 1470 nM and 20.2 nM, respectively. Further, in assay [2], the inhibition at 10 µM was 95.5%.

Usually IC50 stands for the concentration at which inhibition is half-maximal. The inhibition is the relative decrease from the control value, in per cent.
